# Reference: US5942405A, “Therapeutic and screening methods using C3a receptor and C3a” (priority 1997, dated 1999)
# “Also recorded” adds a separate entry of the source.
# Tests used:
# C5a-R = assay: Electrophysiological response (Ca2+ mediated chloride currents, two electrode voltage clamp) of Xenopus oocytes injected with C5a-R cRNA; type: cell-based, human; conditions: oocytes co-injected with C5a-R cRNA (10 ng) and U937 RNA (25 ng), ligands 10 nM
# Procedure: (A) Electrophysiological response of Xenopus oocytes injected with cRNA for C3a Receptor (10 ng), total U937 RNA (25 ng), or a mixture of C3a Receptor (10 ng) and U937 RNA (25 ng) to 10 nM rC5a, 10 nM C3a analogue peptide, 10 nM platelet activating factor (PAF), 10 nM fMetLeuPhe. Inset, represents typical response of oocytes co-injected with C3a Receptor cRNA+U937 RNA to 10 nM C3a. (B) Electrophysiological response of oocytes injected with C5a-R cRNA (10 ng), U937 RNA (25 ng) or a mixture of C5a-R and U937 RNA, to 10 nM rC5a or 10 nM C3a analogue peptide. […] Calcium mobilization by Fura 2 loaded cells expressing C5a receptor (FIGS. 4A & 4C) or C3a Receptor (FIGS. 4B & 4D) in response to rC5a (10 nM, FIG. 4A or 100 nM, FIG. 4B) or C3a analogue peptide (1 uM, FIGS. 4C & 4D).
# Commercially prepared (Clontech, Palo Alto, Calif.) multiple tissue blots containing approximately 2 μg poly-A mRNA per lane were sequentially hybridized with random primer ^32 P-labeled cDNAs spanning the coding regions of C5a-R and C3a Receptor. C5a-R was cloned via PCR from differentiated U937 RNA. Final washing step was carried out twice in 0.5× SSC, 1% SDS at 65° C. for 20 min.
# Capped cRNA transcripts were generated from linearized C3a Receptor and C5a-R plasmid DNA as previously described (Kumar, C. S., et al (1989) J. Biol. Chem. 264, 17939-17946) and suspended in sterile water at a concentration of 0.2 μg/μl. […] Results represent average response determined in three separate experiments.
# The chemotactic receptors for C5a and the fMLP-R have previously been functionally expressed in Xenopus laevis oocytes (Kroll, B., et al (1991) FEBS Lett. 291, 208-210; Murphy, P. M. & McDermott, D. (1991) J Biol. Chem. 266, 12560-12567; Murphy, P. M., Gallin, E. K., and Tiffany, H. L. (1990) J Immunol. 145, 2227-2234; Schultz, P., et al (1992) Cellular Signalling 4, 153-161) and, unlike all other GPCRs tested in this system, injection of cRNA for the cloned chemotactic receptors alone is insufficient to stimulate signal transduction in response to ligand binding (Kroll, B., et al (1991) FEBS Lett. 291, 208-210; Murphy, P. M. & McDermott, D. (1991) J Biol. Chem. 266, 12560-12567). Functional expression of both of these chemotactic receptors, as monitored by induction of Ca^2+ mediated chloride currents, requires the co-injection of a complimentary human factor which can be supplied by total RNA from myeloid or liver cells (Kroll, B., et al (1991) FEBS Lett. 291, 208-210; Murphy, P. M. & McDermott, D. (1991) J Biol. Chem. 266, 12560-12567). […]
# C3a Receptor = biological target: T1, C3a Receptor (Homo sapiens, UniProt Q16581); assay: C3a binding to HEK 293 cells stably expressing C3a Receptor mRNA; design: cDNA encoding a complete orphan GPCR of 482 amino acids; expressed in transfected cells; conditions: data not shown
# T1 sequence (Q16581 1-482 F151C): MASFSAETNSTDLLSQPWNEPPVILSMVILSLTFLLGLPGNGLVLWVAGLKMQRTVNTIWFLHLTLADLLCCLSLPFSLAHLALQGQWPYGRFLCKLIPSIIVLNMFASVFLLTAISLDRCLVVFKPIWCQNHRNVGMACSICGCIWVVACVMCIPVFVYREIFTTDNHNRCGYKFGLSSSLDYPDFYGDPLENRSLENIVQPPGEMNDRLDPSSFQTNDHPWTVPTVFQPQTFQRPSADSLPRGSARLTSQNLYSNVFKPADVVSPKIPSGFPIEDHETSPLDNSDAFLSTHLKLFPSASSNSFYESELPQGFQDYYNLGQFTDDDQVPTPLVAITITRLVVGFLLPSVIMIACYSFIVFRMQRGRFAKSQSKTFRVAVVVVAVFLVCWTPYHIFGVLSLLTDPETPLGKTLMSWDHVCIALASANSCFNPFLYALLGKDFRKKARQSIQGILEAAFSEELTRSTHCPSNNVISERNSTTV
# Text: C3a was radioiodinated and used in whole cell binding assays to further characterize C3a Receptor. […] Curiously, HEK 293 cells stably expressing C3a Receptor mRNA by Northern Blot, neither bound nor responded to C3a (data not shown).
# guinea pig ileal tissue = conditions: C3a and C4a; cited from earlier work
molecule,measurement,setting,value
"C3a: C3a was purchased from Advanced Research Technologies, San Diego; anaphylatoxin; radioiodinated for binding",electrophysiological response of oocytes expressing C5a-R,C5a-R,smaller response; also recorded: respond
same,electrophysiological response of oocytes expressing C5a-R,C5a-R; listed as native ligand,elicited similar responses
same,binding of C3a to HEK 293 cells expressing C3a Receptor mRNA,C3a Receptor,neither bound
same,cross desensitization of guinea pig ileal tissue,guinea pig ileal tissue,cross desensitize
"rC5a: Human rC5a was expressed in E. coli and purified to homogeneity (protein, UniProt P01031 678-751, looked up, C5a anaphylatoxin recombinant, E. coli, Human rC5a was expressed in E. coli and purified to homogeneity) C5a anaphylatoxin: TLQKKIEEIAAKYKHSVVKKCCYDGACVNNDETCEQRAARISLGPRCIKAFTECCVVASQLRANISHKDMQLGR",electrophysiological response of oocytes expressing C5a-R,C5a-R,induced rapid activation of chloride currents
same,electrophysiological response of oocytes expressing C5a-R,C5a-R; listed as C5a,respond
